In PubChem BioAssay (NCI):
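Method: 48-hour compound exposure of cells in 96-well plates, five concentrations, linear interpolation of endpoints. Abbreviation: GI50, concentration required for 50% inhibition of growth. TGI marks complete inhibition of growth.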

How the values were obtained:
Test in all cases: inhibition of tumour cell growth, NCI panel, 48 h
[1] = system: SF-539 CNS
[2] = system: OVCAR-4 ovarian
[3] = system: NCI/ADR-RES ovarian
[4] = system: 786-0 renal
[5] = system: NCI-H522 lung
[6] = system: HOP-62 NSCLC
[7] = system: RXF 393 renal
[8] = system: SR leukemia
[9] = system: MDA-MB-435
[10] = system: BT-549 breast
[11] = system: UACC-62 melanoma
[12] = system: MCF7 breast
[13] = system: M14 melanoma
[14] = system: MALME-3M melanoma
[15] = system: OVCAR-3 ovarian
[16] = system: TK-10 renal
[17] = system: MDA-MB-468 breast
[18] = system: CCRF-CEM leukemia
[19] = system: SF-268 CNS
[20] = system: OVCAR-5 ovarian
[21] = system: K-562 leukemia
[22] = system: HOP-92 NSCLC
[23] = system: MOLT-4 leukemia
[24] = system: OVCAR-8 ovarian
[25] = system: NCI-H460 lung
[26] = system: COLO 205 colon
[27] = system: SN12C renal

## C[C@H]1[C@@H](CC(=O)N[C@@H](Cc2coc3ccccc23)B(O)O)O[C@@H]2OC3(C)CC[C@H]4[C@H](C)CC[C@@H]1[C@@]24OO3
[1]
  GI50: 1050 nM
  TGI: 2470 nM
[2]
  GI50: 2600 nM
  TGI: 68500 nM
[3]
  GI50: 8060 nM
  TGI: 37200 nM
[4]
  GI50: 2840 nM
  TGI: 15100 nM
[5]
  GI50: 493 nM
  TGI: 1810 nM
[6]
  GI50: 2260 nM
  TGI: 8310 nM
[7]
  GI50: 259 nM
  TGI: 1120 nM
[8]
  GI50: 143 nM
  TGI: 677 nM
[9]
  GI50: 287 nM
  TGI: 1510 nM
[10]
  GI50: 556 nM
  TGI: 1800 nM
[11]
  GI50: 1060 nM
  TGI: 2230 nM
[12]
  GI50: 969 nM
  TGI: 15600 nM
[13]
  GI50: 1330 nM
  TGI: 3860 nM
[14]
  GI50: 1070 nM
  TGI: 4580 nM
[15]
  GI50: 1260 nM
  TGI: 5180 nM
[16]
  GI50: 1640 nM
  TGI: > 71000 nM
[17]
  GI50: 917 nM
  TGI: 2570 nM
[18]
  GI50: 322 nM
  TGI: 5380 nM
[19]
  GI50: 3040 nM
  TGI: > 71000 nM
[20]
  GI50: 1650 nM
  TGI: 7120 nM
[21]
  GI50: 1140 nM
  TGI: 13800 nM
[22]
  GI50: 1340 nM
  TGI: 4090 nM
[23]
  GI50: 267 nM
  TGI: 3540 nM
[24]
  GI50: 2080 nM
  TGI: 11700 nM
[25]
  GI50: 2460 nM
  TGI: 12000 nM
[26]
  GI50: 1890 nM
  TGI: 8900 nM
[27]
  GI50: 2180 nM
  TGI: 10600 nM
